System: Staphylococcus aureus
Experiment: Antibacterial activity against Staphylococcus aureus ATCC 29213 assessed as reduction in microbial growth measured for 16 to 20 hrs by microdilution assay
Format: functional
Settings: time 16-20 hrs

Row | Structure (SMILES) | MIC [µM]
1 | N#Cc1ccc(NC(=O)COc2ccccc2)cc1 | > 8
2 | [C-]#[N+]c1ccc(NC(=O)C(=O)c2ccccc2)cc1 | > 8
3 | [C-]#[N+]c1ccc(NC(=O)CCc2cc(OC)c(OC)c(OC)c2)cc1 | > 8
4 | [C-]#[N+]c1ccc(NC(=O)Cc2ccc3c(c2)OCO3)cc1 | 8
5 | [C-]#[N+]c1ccc(NC(=O)c2ccccc2C(F)(F)F)cc1 | > 8
6 | [C-]#[N+]c1ccc(NC(=O)CCc2ccc(Br)cc2)cc1 | 8
7 | [C-]#[N+]c1ccc(NC(=O)CCCCCCCC)cc1 | 8
8 | [C-]#[N+]c1ccc(NC(=O)Cc2ccc(OC)cc2)cc1 | 8
9 | N#Cc1ccc(NC(=O)Cc2cccc(Cl)c2)cc1 | > 8

System: Staphylococcus aureus
Experiment: Antibacterial activity against methicillin-resistant Staphylococcus aureus ATCC 43300 assessed as reduction in microbial growth measured for 16 to 20 hrs by microdilution assay
Format: functional
Settings: time 16-20 hrs

Row | Structure (SMILES) | MIC [µM]
10 | [C-]#[N+]c1ccc(NC(=O)Cc2ccc3c(c2)OCO3)cc1 | 8
11 | [C-]#[N+]c1ccc(NC(=O)CCc2ccc(Br)cc2)cc1 | 8
12 | [C-]#[N+]c1ccc(NC(=O)CCCCCCCC)cc1 | 4
13 | [C-]#[N+]c1ccc(NC(=O)Cc2ccc(OC)cc2)cc1 | 8

System: Staphylococcus epidermidis
Experiment: Antibacterial activity against Staphylococcus epidermidis ATCC 12228 assessed as reduction in microbial growth measured for 16 to 20 hrs by microdilution assay
Format: functional
Settings: time 16-20 hrs

Row | Structure (SMILES) | MIC [µM]
14 | [C-]#[N+]c1ccc(NC(=O)Cc2ccc3c(c2)OCO3)cc1 | 1
15 | [C-]#[N+]c1ccc(NC(=O)CCc2ccc(Br)cc2)cc1 | 2
16 | [C-]#[N+]c1ccc(NC(=O)CCCCCCCC)cc1 | 1
17 | [C-]#[N+]c1ccc(NC(=O)Cc2ccc(OC)cc2)cc1 | 2

System: Staphylococcus epidermidis
Experiment: Antibacterial activity against Staphylococcus epidermidis ATCC 49134 assessed as reduction in microbial growth measured for 16 to 20 hrs by microdilution assay
Format: functional
Settings: time 16-20 hrs

Row | Structure (SMILES) | MIC [µM]
18 | [C-]#[N+]c1ccc(NC(=O)Cc2ccc3c(c2)OCO3)cc1 | 1
19 | [C-]#[N+]c1ccc(NC(=O)CCc2ccc(Br)cc2)cc1 | 2
20 | [C-]#[N+]c1ccc(NC(=O)CCCCCCCC)cc1 | 0.5
21 | [C-]#[N+]c1ccc(NC(=O)Cc2ccc(OC)cc2)cc1 | 2

System: Klebsiella pneumoniae
Experiment: Antibacterial activity against Klebsiella pneumoniae ATCC 700603 assessed as inhibition of bacterial growth measured for 16 to 20 hrs by microdilution assay
Format: functional
Settings: time 16-20 hrs

Row | Structure (SMILES) | MIC [µM]
22 | N#Cc1ccc(NC(=O)COc2ccccc2)cc1 | ≥ 64
23 | [C-]#[N+]c1ccc(NC(=O)C(=O)c2ccccc2)cc1 | ≥ 64
24 | [C-]#[N+]c1ccc(NC(=O)CCc2cc(OC)c(OC)c(OC)c2)cc1 | ≥ 64
25 | [C-]#[N+]c1ccc(NC(=O)Cc2ccc3c(c2)OCO3)cc1 | ≥ 64
26 | [C-]#[N+]c1ccc(NC(=O)c2ccccc2C(F)(F)F)cc1 | ≥ 64
27 | [C-]#[N+]c1ccc(NC(=O)CCc2ccc(Br)cc2)cc1 | ≥ 64
28 | [C-]#[N+]c1ccc(NC(=O)CCCCCCCC)cc1 | ≥ 64
29 | [C-]#[N+]c1ccc(NC(=O)Cc2ccc(OC)cc2)cc1 | ≥ 64
30 | N#Cc1ccc(NC(=O)Cc2cccc(Cl)c2)cc1 | ≥ 64

System: Staphylococcus epidermidis
Experiment: Antibacterial activity against Staphylococcus epidermidis ATCC 35984 assessed as reduction in microbial growth measured for 16 to 20 hrs by microdilution assay
Format: functional
Settings: time 16-20 hrs

Row | Structure (SMILES) | MIC [µM]
31 | [C-]#[N+]c1ccc(NC(=O)Cc2ccc3c(c2)OCO3)cc1 | 1
32 | [C-]#[N+]c1ccc(NC(=O)CCc2ccc(Br)cc2)cc1 | 2
33 | [C-]#[N+]c1ccc(NC(=O)CCCCCCCC)cc1 | 0.5
34 | [C-]#[N+]c1ccc(NC(=O)Cc2ccc(OC)cc2)cc1 | 2

System: Staphylococcus aureus
Experiment: Antibacterial activity against Staphylococcus aureus ATCC 6538 assessed as reduction in microbial growth measured for 16 to 20 hrs by microdilution assay
Format: functional
Settings: time 16-20 hrs

Row | Structure (SMILES) | MIC [µM]
35 | N#Cc1ccc(NC(=O)COc2ccccc2)cc1 | > 8
36 | [C-]#[N+]c1ccc(NC(=O)C(=O)c2ccccc2)cc1 | > 8
37 | [C-]#[N+]c1ccc(NC(=O)CCc2cc(OC)c(OC)c(OC)c2)cc1 | > 8
38 | [C-]#[N+]c1ccc(NC(=O)Cc2ccc3c(c2)OCO3)cc1 | 8
39 | [C-]#[N+]c1ccc(NC(=O)c2ccccc2C(F)(F)F)cc1 | > 8
40 | [C-]#[N+]c1ccc(NC(=O)CCc2ccc(Br)cc2)cc1 | 8
41 | [C-]#[N+]c1ccc(NC(=O)CCCCCCCC)cc1 | 8
42 | [C-]#[N+]c1ccc(NC(=O)Cc2ccc(OC)cc2)cc1 | 8
43 | N#Cc1ccc(NC(=O)Cc2cccc(Cl)c2)cc1 | > 8

System: Staphylococcus aureus
Experiment: Antibacterial activity against Staphylococcus aureus ATCC 25923 assessed as reduction in microbial growth measured for 16 to 20 hrs by microdilution assay
Format: functional
Settings: time 16-20 hrs

Row | Structure (SMILES) | MIC [µM]
44 | N#Cc1ccc(NC(=O)COc2ccccc2)cc1 | > 8
45 | [C-]#[N+]c1ccc(NC(=O)C(=O)c2ccccc2)cc1 | > 8
46 | [C-]#[N+]c1ccc(NC(=O)CCc2cc(OC)c(OC)c(OC)c2)cc1 | > 8
47 | [C-]#[N+]c1ccc(NC(=O)Cc2ccc3c(c2)OCO3)cc1 | 4
48 | [C-]#[N+]c1ccc(NC(=O)c2ccccc2C(F)(F)F)cc1 | > 8
49 | [C-]#[N+]c1ccc(NC(=O)CCc2ccc(Br)cc2)cc1 | 8
50 | [C-]#[N+]c1ccc(NC(=O)CCCCCCCC)cc1 | 2
51 | [C-]#[N+]c1ccc(NC(=O)Cc2ccc(OC)cc2)cc1 | 4
52 | N#Cc1ccc(NC(=O)Cc2cccc(Cl)c2)cc1 | > 8

System: Pseudomonas aeruginosa
Experiment: Antibacterial activity against Pseudomonas aeruginosa ATCC 10145 assessed as inhibition of bacterial growth measured for 16 to 20 hrs by microdilution assay
Format: functional
Settings: time 16-20 hrs

Row | Structure (SMILES) | MIC [µM]
53 | N#Cc1ccc(NC(=O)COc2ccccc2)cc1 | ≥ 64
54 | [C-]#[N+]c1ccc(NC(=O)C(=O)c2ccccc2)cc1 | ≥ 64
55 | [C-]#[N+]c1ccc(NC(=O)CCc2cc(OC)c(OC)c(OC)c2)cc1 | ≥ 64
56 | [C-]#[N+]c1ccc(NC(=O)Cc2ccc3c(c2)OCO3)cc1 | ≥ 64
57 | [C-]#[N+]c1ccc(NC(=O)c2ccccc2C(F)(F)F)cc1 | ≥ 64
58 | [C-]#[N+]c1ccc(NC(=O)CCc2ccc(Br)cc2)cc1 | ≥ 64
59 | [C-]#[N+]c1ccc(NC(=O)CCCCCCCC)cc1 | ≥ 64
60 | [C-]#[N+]c1ccc(NC(=O)Cc2ccc(OC)cc2)cc1 | ≥ 64
61 | N#Cc1ccc(NC(=O)Cc2cccc(Cl)c2)cc1 | ≥ 64

System: Staphylococcus aureus
Experiment: Antibacterial activity against methicillin-resistant Staphylococcus aureus ATCC 33592 assessed as reduction in microbial growth measured for 16 to 20 hrs by microdilution assay
Format: functional
Settings: time 16-20 hrs

Row | Structure (SMILES) | MIC [µM]
62 | [C-]#[N+]c1ccc(NC(=O)Cc2ccc3c(c2)OCO3)cc1 | 8
63 | [C-]#[N+]c1ccc(NC(=O)CCc2ccc(Br)cc2)cc1 | 8
64 | [C-]#[N+]c1ccc(NC(=O)CCCCCCCC)cc1 | 8
65 | [C-]#[N+]c1ccc(NC(=O)Cc2ccc(OC)cc2)cc1 | 8

System: Escherichia coli
Experiment: Antibacterial activity against Escherichia coli ATCC 25922 assessed as inhibition of bacterial growth measured for 16 to 20 hrs by microdilution assay
Format: functional
Settings: time 16-20 hrs

Row | Structure (SMILES) | MIC [µM]
66 | N#Cc1ccc(NC(=O)COc2ccccc2)cc1 | ≥ 64
67 | [C-]#[N+]c1ccc(NC(=O)C(=O)c2ccccc2)cc1 | ≥ 64
68 | [C-]#[N+]c1ccc(NC(=O)CCc2cc(OC)c(OC)c(OC)c2)cc1 | ≥ 64
69 | [C-]#[N+]c1ccc(NC(=O)Cc2ccc3c(c2)OCO3)cc1 | ≥ 64
70 | [C-]#[N+]c1ccc(NC(=O)c2ccccc2C(F)(F)F)cc1 | ≥ 64
71 | [C-]#[N+]c1ccc(NC(=O)CCc2ccc(Br)cc2)cc1 | ≥ 64
72 | [C-]#[N+]c1ccc(NC(=O)CCCCCCCC)cc1 | ≥ 64
73 | [C-]#[N+]c1ccc(NC(=O)Cc2ccc(OC)cc2)cc1 | ≥ 64
74 | N#Cc1ccc(NC(=O)Cc2cccc(Cl)c2)cc1 | ≥ 64

— ChEMBL document CHEMBL5352456, “Isocyanides in med chem: A scaffold hopping approach for the identification of novel 4-isocyanophenylamides as potent antibacterial agents against methicillin-resistant Staphylococcusaureus” (Eur J Med Chem, 2023)
